Results taken from article PMC3584069, “The Interaction of the Chemotherapeutic Drug Chlorambucil with Human Glutathione Transferase A1-1: Kinetic and Structural Analysis” (PLoS ONE, 2013).

Experiments:
[1] = target: T1, human glutathione transferase A1-1 (hGSTA1-1) (Homo sapiens, UniProt P08263); experiment: X-ray crystal structure (GSH moiety of the GSH–CBL adduct); initial velocity kinetics with GSH as variable substrate; type: binding
T1 construct: gene GSTA1; recombinant purified hGSTA1-1 homodimer
T1 sequence (P08263 2-222): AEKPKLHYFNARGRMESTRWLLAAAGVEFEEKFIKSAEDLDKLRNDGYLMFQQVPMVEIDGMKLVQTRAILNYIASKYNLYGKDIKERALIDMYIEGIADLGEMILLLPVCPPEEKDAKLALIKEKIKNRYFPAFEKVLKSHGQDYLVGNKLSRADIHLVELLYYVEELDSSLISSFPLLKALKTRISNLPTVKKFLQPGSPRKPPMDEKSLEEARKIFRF

[2] = target: T1, human glutathione transferase A1-1 (hGSTA1-1); experiment: irreversible enzyme inactivation kinetics in absence of GSH (apparent KD, fast phase), MALDI-TOF MS of CBL-modified subunit, DTNB cysteine titration; also a substrate in presence of GSH; type: biochemical; settings: read-out: Kd
[3] = target: the molecule itself; experiment: crystal structure; hGSTA1-1 (19.7 mg/mL) incubated with CBL at 1:3 molar ratio; 17-20% PEG 2000, 0.1 M Tris-HCl pH 7.5, 0.1 mM beta-mercaptoethanol, vapor diffusion at 20°C; 2.1 Å; monomers A and B in the model

N[C@@H](CCC(=O)N[C@@H](CS)C(=O)NCC(=O)O)C(=O)O [GSH]
X-ray crystal structure (GSH moiety of the GSH-CBL adduct); initial velocity kin [1]: Difference Fourier electron density maps indicate the presence of a GSH moiety in the G-site of the enzyme

O=C(O)CCCc1ccc(N(CCCl)CCCl)cc1 [chlorambucil]
KI (inactivation) [2]: 2950 ± 500 µM

B1: human glutathione transferase A1-1 (enzyme)
chain: KPKLHYFNARGRMESTRWLLAAAGVEFEEKFIKSAEDLDKLRNDGYLMFQQVPMVEIDGMKLVQTRAILNYIASKYNLYGKDIKERALIDMYIEGIADLGEMILLLPVCPPEEKDAKLALIKEKIKNRYFPAFEKVLKSHGQDYLVGNKLSRADIHLVELLYYVEELDSSLISSFPLLKALKTRISNLPTVKKFLQPGSPRKPPMDEKSLEEARKIF
notes: glutathione transferase A1 subunit, human; the crystal model holds residues 4-220 (monomer A) and 3-221 (monomer B, without 112-115); Homodimer; MALDI-TOF of the unmodified subunit: m/z 25,482; also called hGSTA1-1; GSTA1-1; source: recombinant
binding result [3]: binds
